# Measured values reported in PubChem BioAssay (NCI).
# Several values for one entry are separate records, joined by “and”; a condition that tells them apart may be missing. Equal entries are not always repeated.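 Five concentrations, 48 hours, 96-well plates. GI50: concentration for 50% inhibition of growth. The concentration for full growth arrest is given as TGI.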
# Test system: MDA-MB-468 breast
# Assay: growth of human tumour cells (NCI), 48 h
SMILES,GI50,TGI
CCNC(=O)Oc1ccc(/C(=C(/C)c2ccc(OC)cc2)c2ccc(OCCN3CCCCCC3)cc2)cc1,2050 nM,8090 nM
Cc1cc(=O)oc2cc(OCCn3c(C)nn(-c4ccc(Cl)cc4)c3=O)ccc12,2690 nM,57600 nM
CCCCCCOc1ccc(C(=N)N(CCCC)CCCC)c2ccccc12,590 nM,2010 nM
CCc1cccc(CC)c1/C=C/c1cncc(C(=O)NC)c1,4030 nM,20600 nM
Nc1ncnc2c1c(-c1ccc(Oc3ccccc3)cc1)nn2C[C@@H]1SSC[C@@H]1O,400 nM,2190 nM
O=C(/C=C/c1cn(-c2ccccc2)nc1-c1ccc([N+](=O)[O-])cc1)c1ccc(Cl)cc1,2910 nM,> 100000 nM
COc1cc(-n2cc(-c3cc(O)c(C/C=C(\C)CCC=C(C)C)c(O)c3)nn2)cc2c1O[C@]1(C)CC[C@@H](O)C(C)(C)[C@H]1C2,880 nM,4890 nM
COc1ccc(-c2cc(/C=C/C(=O)c3cc(OC)c(OC)c(OC)c3)[nH]n2)cc1OC,1330 nM,3270 nM
COc1ccc2[nH]c(-c3ccccc3)cc2c1,47000 nM,> 100000 nM
CN(C)CCCN1c2ccccc2Sc2ccc(Cl)cc21,1670 nM and 1810 nM,3540 nM and 4620 nM
O=C(Nc1ccccc1O)c1ccc(CNC(=O)c2ccsc2Nc2ccnc(C(F)(F)F)c2)cc1,1430 nM,3530 nM
O=c1oc2ccc(F)cc2c(=O)n1-c1ccc(Br)cc1F,1530 nM,5490 nM
CCCNC(=O)CCC(C)[C@H]1CCC2C3C(C[C@H](OC(C)=O)[C@@]21C)[C@@]1(C)CCC2(C[C@H]1C[C@H]3OC(C)=O)OOC1(CCCCC1)OO2 (stereo not given in full),1890 nM,6770 nM
COc1ccc(-c2nc3c(c(=O)n2C(C)=O)C(c2ccc(Cl)cc2)c2sc4c(Cl)cccc4c2O3)cc1 (stereo not given),234 nM,571 nM
O=C(Nc1ccc(Cl)cc1)Nc1ccccc1CNc1nc(Nc2ccc(OCCN3CCCC3)cc2)ncc1Cl,998 nM,2280 nM
Cn1cnc([N+](=O)[O-])c1Sc1nc(N)nc2nc[nH]c12,884 nM,6110 nM
Cc1cc(NC(=O)NC(=O)c2ccccc2N(C)C)ccc1Oc1ncc(Br)cn1,490 nM,> 100000 nM
COc1cc2cc(Oc3ccc(NC(=O)c4cccc5c4OCCO5)cc3)c(C)nc2cc1OC,2930 nM,48700 nM
O=C(CCN1CCCC1)Nc1ccc2c(Nc3ccccc3)c3ccccc3nc2c1,182 nM,1600 nM
O=C1C=C(N2CCN(c3ccccn3)CC2)C(=O)c2c(O)ccc(O)c21,2750 nM,–
CCC(=O)c1cc([N+](=O)[O-])c(Br)s1,1920 nM,3690 nM
C[C@@H]1C/C=C\C(=O)O[C@H](/C=C/C#C/C=C/C(C)(C)[C@@H](O)c2cccc(O)c2Br)[C@@H](C)/C=C/[C@H](C)C[C@H](OC(N)=O)C1,61.1 nM,17800 nM

SMILES,GI50,TGI
Nc1ccn([C@@H]2C(F)=C(CO)[C@@H](O)[C@H]2O)c(=O)n1,31200 nM,> 100000 nM
CN(C)C(=O)SC1=C(c2c(Cl)cccc2Cl)C(=O)c2ccccc21,1970 nM,4150 nM
COc1ccc(NC(=O)c2sc3nc4c(cc3c2N)CCCC4)cc1,481 nM,96400 nM
COc1cc2nnn3c4ncccc4c(N=O)c3c2cc1OC,156 nM,1090 nM
COC(=O)[C@H](Cc1ccccc1)NC(=O)c1csc([C@@H](C[C@H](C(C)C)N(C)C(=O)[C@@H](NC(=O)[C@H]2CCCN2C)C2CC2)OC(C)=O)n1,153 nM,> 33300 nM
NC(=O)c1cc(I)ccc1NC(=O)COc1ccccc1,311 nM,–
Oc1[nH]c2ccccc2c1/C=c1/cc2c(c(-c3ccc(C(F)(F)F)cc3)n1)=Nc1ccccc1-2,3820 nM,16100 nM
Cn1cc(CO)c2ccccc21,10500 nM,48700 nM
COc1ccc(C(=O)C[C@]2(O)C(=O)Nc3c(Cl)ccc(Cl)c32)cc1,395 nM,> 67100 nM
c1ccc(CC(NCCNC(Cc2ccccc2)c2ccccc2)c2ccccc2)cc1 (stereo not given),255 nM,745 nM
C1=C2CNCC3=Cc4ccc5ccccc5c4OC23Oc2c1ccc1ccccc21,2060 nM,7550 nM
CCCn1cnc2c(SCc3ccccc3)nc(N)nc21,23600 nM,> 100000 nM
CCO/C=N/C1=C(C#N)C(c2ccc(Cl)cc2)c2sc3c(CC)cccc3c2O1 (stereo not given),911 nM,11000 nM
CN(C)C/C=C/C(=O)Nc1ccc(C(=O)N2CCC[C@@H](Nc3ncc(Cl)c(-c4c[nH]c5ccccc45)n3)C2)cc1,24.9 nM,72.2 nM
CC[C@H](C)[C@H](NC(=O)[C@H]1CCCCN1C)C(=O)N(C)[C@H](C[C@@H](OC(C)=O)c1nc(C(=O)N[C@@H](Cc2ccccc2)C[C@H](C)C(=O)OC)cs1)C(C)C,–,4450 nM
COc1ccc2cc(-c3c(-c4ccncc4)nc(-c4ccc(S(C)=O)cc4C)n3C)ccc2c1 (stereo not given),9070 nM,> 25000 nM
COc1ccccc1/C=C\C(=O)c1ccccc1,3970 nM,19100 nM
Cc1n(Cc2ccc3ccccc3c2)c(Cl)c(Cl)[n+]1Cc1ccc2ccccc2c1,1090 nM,2920 nM
O=C(Cc1ccc(/C=C/C(=O)c2ncc[nH]2)cc1)Nc1ccc(C(F)(F)F)cc1,1770 nM,6840 nM
CN(C)CCCC1(c2ccc(F)cc2)OCc2cc(-c3cncc4ccccc34)ccc21 (stereo not given),1550 nM,3190 nM
CC(=O)Oc1ccc(C2(c3ccc(OC(C)=O)cc3)C(=O)Nc3ccccc32)cc1,68.2 nM and 73.8 nM,40800 nM and 91000 nM
Fc1c[c-]c(-c2ccccn2)c(F)c1.[CH3-].[Pt+2].c1ccc(P(C[PH+](c2ccccc2)c2ccccc2)c2ccccc2)cc1,325 nM,946 nM
